Measured values published in ChEMBL document CHEMBL1201862, “PubChem BioAssay data set” (2004).
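Protocol summary: plate cells (96-well), add compound at 5 concentrations, incubate 48 h, interpolate endpoints linearly. At the GI50, growth is halved.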 Activity calls are given as the source filed them. No stated cut-off is given here; in the data, active = GI50 up to about 1.1 µM and inactive = higher.

Columns and labels:
Assay in all cases: NCI-60 cell line screen, 48 h
[1] = tested on: SNB-19
[2] = tested on: OVCAR-3
[3] = tested on: NCI-H460
[4] = tested on: NCI-H522
[5] = tested on: COLO 205
[6] = tested on: SF-539
[7] = tested on: SNB-75
[8] = tested on: K562
[9] = tested on: SF-268
[10] = tested on: HOP-62
[11] = tested on: SF-295
[12] = tested on: OVCAR-4
[13] = tested on: SK-OV-3
[14] = tested on: RXF 393
[15] = tested on: U-251
[16] = tested on: SK-MEL-28
[17] = tested on: HCT-15
[18] = tested on: A498
[19] = tested on: UACC-257
[20] = tested on: SW-620
[21] = tested on: HL-60
[22] = tested on: NCI-H226
[23] = tested on: OVCAR-8
[24] = tested on: M19-MEL
[25] = tested on: DMS-114
[26] = tested on: HCT-116
[27] = tested on: SR
[28] = tested on: SK-MEL-2
[29] = tested on: ACHN
[30] = tested on: M14
[31] = tested on: 786-0
[32] = tested on: HT-29
[33] = tested on: EKVX
[34] = tested on: RPMI-8226
[35] = tested on: SN12C
[36] = tested on: IGROV-1
[37] = tested on: OVCAR-5
[38] = tested on: KM-20L2
[39] = tested on: CCRF-CEM
[40] = tested on: RXF 631
[41] = tested on: TK-10
[42] = tested on: UACC-62
[43] = tested on: UO-31
[44] = tested on: NCI-H23
[45] = tested on: LXFL 529
[46] = tested on: A549
[47] = tested on: Malme-3M
[48] = tested on: MOLT-4
[49] = tested on: KM12
[50] = tested on: DLD-1
[51] = tested on: HCC 2998
[52] = tested on: HOP-92
[53] = tested on: HOP-18
[54] = tested on: XF498
[55] = tested on: LOX IMVI
[56] = tested on: SK-MEL-5
[57] = tested on: SNB-78

CC1=C(C)C(=O)C2=C(OCCCO2)C1=O
GI50 [1]: > 100 µM (inactive)
GI50 [2]: 18.1 µM (inactive)
GI50 [3]: > 10 µM (inactive)
GI50 [4]: 18 µM (inactive)
GI50 [5]: 34.2 µM (inactive)
GI50 [6]: > 10 µM (inactive)
GI50 [7]: 23.8 µM (inactive)
GI50 [8]: 21.6 µM (inactive)
GI50 [9]: 18.3 µM (inactive)
GI50 [10]: > 100 µM (inactive)
GI50 [11]: 29.1 µM (inactive)
GI50 [12]: > 10 µM (inactive)
GI50 [13]: > 100 µM (inactive)
GI50 [14]: > 10 µM (inactive)
GI50 [15]: > 100 µM (inactive)
GI50 [16]: 35.6 µM (inactive)
GI50 [17]: > 100 µM
GI50 [18]: > 10 µM (inactive)
GI50 [19]: > 10 µM (inactive)
GI50 [20]: 17 µM (inactive)
GI50 [21]: 3.61 µM (inactive)
GI50 [22]: > 10 µM (inactive)
GI50 [23]: 18.7 µM (inactive)
GI50 [24]: 17.9 µM (inactive)
GI50 [25]: 18.4 µM (inactive)
GI50 [26]: > 10 µM (inactive)
GI50 [27]: 21.9 µM (inactive)
GI50 [28]: > 10 µM (inactive)
GI50 [29]: 18.4 µM (inactive)
GI50 [30]: 17 µM (inactive)
GI50 [31]: 19.2 µM (inactive)
GI50 [32]: 20.8 µM (inactive)
GI50 [33]: 17.2 µM (inactive)
GI50 [34]: 16.5 µM (inactive)
GI50 [35]: > 10 µM (inactive)
GI50 [36]: 18.2 µM (inactive)
GI50 [37]: > 10 µM (inactive)
GI50 [38]: 34.2 µM (inactive)
GI50 [39]: 2.43 µM (inactive)
GI50 [40]: 17.7 µM (inactive)
GI50 [41]: > 10 µM (inactive)
GI50 [42]: 18.1 µM (inactive)
GI50 [43]: 16.5 µM (inactive)
GI50 [44]: > 10 µM (inactive)
GI50 [45]: 18 µM (inactive)
GI50 [46]: 81.8 µM (inactive)
GI50 [47]: > 10 µM (inactive)
GI50 [48]: 2.4 µM (inactive)
GI50 [49]: > 10 µM (inactive)
GI50 [50]: > 10 µM (inactive)
GI50 [51]: 59.4 µM (inactive)

NC1=NN(c2ccccc2)C(=O)C1/C(=N\NC(=O)c1cc2ccccc2cc1O)C(=O)Nc1cccc(C(F)(F)F)c1 (centres undefined)
GI50 [1]: 75 µM (inactive)
GI50 [2]: 25.7 µM (inactive)
GI50 [3]: 27.1 µM (inactive)
GI50 [52]: 33.2 µM (inactive)
GI50 [5]: 35.7 µM (inactive)
GI50 [7]: > 100 µM (inactive)
GI50 [9]: 23.5 µM (inactive)
GI50 [10]: 39.4 µM (inactive)
GI50 [11]: 49.1 µM (inactive)
GI50 [12]: 42.5 µM (inactive)
GI50 [14]: 55.1 µM (inactive)
GI50 [53]: 21.2 µM (inactive)
GI50 [15]: 37.7 µM (inactive)
GI50 [16]: 57.7 µM (inactive)
GI50 [54]: 64.9 µM (inactive)
GI50 [19]: 26.4 µM (inactive)
GI50 [20]: 34.7 µM (inactive)
GI50 [21]: 6.65 µM (inactive)
GI50 [23]: 24.1 µM (inactive)
GI50 [24]: 35.2 µM (inactive)
GI50 [25]: 24.8 µM (inactive)
GI50 [26]: 25.4 µM (inactive)
GI50 [28]: 22.4 µM (inactive)
GI50 [29]: 30.1 µM (inactive)
GI50 [30]: 28.7 µM (inactive)
GI50 [31]: 38.1 µM (inactive)
GI50 [32]: 41 µM (inactive)
GI50 [55]: 25.9 µM (inactive)
GI50 [33]: 35.6 µM (inactive)
GI50 [34]: 39.7 µM (inactive)
GI50 [35]: 46.6 µM (inactive)
GI50 [36]: 27.8 µM (inactive)
GI50 [37]: 26.2 µM (inactive)
GI50 [38]: 32.6 µM (inactive)
GI50 [39]: 7.06 µM (inactive)
GI50 [41]: > 100 µM (inactive)
GI50 [42]: 35.2 µM (inactive)
GI50 [43]: 32.8 µM (inactive)
GI50 [44]: 29.2 µM (inactive)
GI50 [45]: 39.3 µM (inactive)
GI50 [56]: 23.1 µM (inactive)
GI50 [46]: 37.2 µM (inactive)
GI50 [47]: 37 µM (inactive)
GI50 [48]: 16.3 µM (inactive)
GI50 [49]: 37.3 µM (inactive)
GI50 [57]: 44 µM (inactive)
GI50 [50]: 36.6 µM (inactive)
GI50 [51]: 46.2 µM (inactive)
